Results on 13 molecules are retold here after US7994185B2, “Benzene sulfonamide thiazole and oxazole compounds” (Glaxo Smith Kline LLC, priority 2008, dated 2011).

Assay [1] addresses T1, BRAFV600E full-length (amino acids 2-766) (Homo sapiens, UniProt P15056, V600E).
T1 construct: His6-tagged BRAFV600E full-length (amino acids 2-766); His6; made in house; host or cells: baculovirus expression system (insect cells)
Nature of the assay: B-Raf Accelerated MEK ATPase assay (BRAMA). The class given is biochemical. To be noted: categorized. Put shortly:
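Coupled-enzyme readout: ADP generated by MEK-mediated ATP hydrolysis, uncoupled from ERK phosphorylation, is linked to NADH oxidation through pyruvate kinase and lactate dehydrogenase.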

In assay [2] the test system is Human colon tumor cells (Colo205). Nature of the assay: Cell growth inhibition assay (CellTiter-Glo), Colo205. It is filed as cell-based. The protocol:
Human colon tumor cells (Colo205) were cultured in RPMI (Mediatech 50-020-PB) containing 10% FBS and 1% penicillin-streptomycin.
The next day, compounds were diluted as follow: For 96-well assays, 13.5 μL of compound in DMSO were diluted using nine (9) serial 1:3 dilutions of 4.5 μL in 9 μL of DMSO. Medium (270 μL/well of RPMI with 10% FBS and 1% penicillin-streptomycin) was added to the plates. Aliquots (7 μL) were added to cells in the final assay giving a final DMSO concentration of 0.2%. For 384-well assays, 15 μL of compound in DMSO were diluted using nine (9) serial 1:3 dilutions of 5 μL in 10 μL of DMSO, followed by a further dilution of 5 μL of compound with 95 μL of medium, of which 2 μL were added to cells in the final assay giving a final DMSO concentration of 0.2%. Cells were incubated at 37° C., 5% CO2 for 3 days.
Total ATP was measured (as a surrogate estimate of cell number) using CellTiter-Glo® reagent (Promega G7571). Briefly, plates were removed from the incubator and allowed to equilibrate to room temperature for 30 minutes. CellTiter-Glo® (25 μL or 55 μL for 384-well or 96-well assays, respectively) reagent was added to each well and plates were shaken on an orbital plate shaker for 2 minutes. Plates were incubated without shaking for a further 30 minutes and read on an LJL Analyst GT reader in luminometer mode with an integration time of 0.5 seconds per well. Percent inhibition of cell growth was calculated relative to DMSO vehicle-treated control wells.

The subject of assay [3] is Human melanoma cancer cells (SK-MEL-28). Nature of the assay: Cell growth inhibition assay (CellTiter-Glo), SK-MEL-28. The class given is cell-based.
Where [4] appears, read: B-Raf Activity, Table 1a, highest pIC50 for the one or more runs.
Where [5] appears, read: Table 1b, later runs, average pIC50 for the one or more runs, read-out: B-Raf pIC50 (converted).
Where [6] appears, read: COLO 205, 72 h, Table 2a, 3 days incubation, read-out: Activity in Colo205 Tumor Cells.
Where [7] appears, read: COLO 205, Table 2b, later runs, average for the one or more runs, categorized, read-out: IC50 for Colo205.
Setting [8] is: SK-MEL-28, 72 h, Table 3a, 3 days incubation, read-out: Activity in SK-MEL-28 Tumor Cells.
[9] abbreviates: SK-MEL-28, Table 3b, later runs, average for the one or more runs, categorized, read-out: IC50 for SK-MEL-28.
The mark [10] stands for this setting: B-Raf pIC50, Table 1b, later runs, average pIC50 for the one or more runs.

Like-named read-outs stand apart in the source and are kept apart here. A value given as a limit tells only on which side of the number the result lay.

T1 sequence (P15056 2-766 V600E): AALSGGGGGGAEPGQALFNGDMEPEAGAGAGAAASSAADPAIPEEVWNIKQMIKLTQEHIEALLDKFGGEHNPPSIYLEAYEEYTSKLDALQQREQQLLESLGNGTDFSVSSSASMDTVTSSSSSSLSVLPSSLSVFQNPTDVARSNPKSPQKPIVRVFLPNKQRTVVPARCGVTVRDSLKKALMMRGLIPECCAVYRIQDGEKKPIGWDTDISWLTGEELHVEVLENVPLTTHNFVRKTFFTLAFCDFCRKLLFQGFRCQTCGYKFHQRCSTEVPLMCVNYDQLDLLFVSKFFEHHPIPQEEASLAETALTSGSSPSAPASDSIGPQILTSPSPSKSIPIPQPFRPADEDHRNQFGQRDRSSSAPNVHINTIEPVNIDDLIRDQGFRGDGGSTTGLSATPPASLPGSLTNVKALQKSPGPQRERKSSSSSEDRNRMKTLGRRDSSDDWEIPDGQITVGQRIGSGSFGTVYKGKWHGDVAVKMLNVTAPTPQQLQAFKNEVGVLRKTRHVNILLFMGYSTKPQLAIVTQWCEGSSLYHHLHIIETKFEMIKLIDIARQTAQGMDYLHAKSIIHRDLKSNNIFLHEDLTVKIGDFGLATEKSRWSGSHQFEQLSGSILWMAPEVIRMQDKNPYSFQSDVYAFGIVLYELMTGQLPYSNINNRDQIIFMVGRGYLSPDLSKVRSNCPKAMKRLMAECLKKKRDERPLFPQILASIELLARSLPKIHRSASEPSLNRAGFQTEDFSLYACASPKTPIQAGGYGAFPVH

For `CC(C)(C)c1nc(-c2ccc(F)c(NS(=O)(=O)c3c(F)cccc3F)c2)c(-c2ccnc(N[C@H]3CC[C@H](NS(C)(=O)=O)CC3)n2)s1` [Example 16, N-(5-{2-(1,1-Dimethylethyl)-5-[2-({trans-4 [(methylsulfonyl)amino]cyclohexyl}amino)-4-pyrimidinyl]-1,3-thiazol-4-yl}-2-fluorophenyl)-2,6-difluorobenzenesulfonamide], the IC50 was below 100 nM in assay [1] (setting [4]); 3.16 to 31.6 nM in assay [1] (setting [5]); below 100 nM in assay [2] (setting [6]); below 100 nM in assay [2] (setting [7]); below 100 nM in assay [3] (setting [8]); below 100 nM in assay [3] (setting [9]).

Take `CS(=O)(=O)N[C@H]1CC[C@H](Nc2nccc(-c3sc(N4CCCC4)nc3-c3cccc(NS(=O)(=O)c4c(F)cccc4F)c3)n2)CC1` [Example 17, 2,6-Difluoro-N-{3-[5-[2-({trans-4-[(methylsulfonyl)amino]cyclohexyl}amino)-4-pyrimidinyl]-2-(1-pyrrolidinyl)-1,3-thiazol-4-yl]phenyl}benzenesulfonamide]: the IC50 in assay [1] (setting [4]) is below 100 nM; in assay [1] (setting [5]), 3.16 to 31.6 nM; in assay [2] (setting [6]), below 100 nM; in assay [2] (setting [7]), below 100 nM; in assay [3] (setting [8]) it was below 100 nM; in assay [3] (setting [9]), below 100 nM.

`CC(C)CNc1nccc(-c2sc(C3CCOCC3)nc2-c2cccc(NS(=O)(=O)c3c(F)cccc3F)c2Cl)n1` [Example 18, N-{2-Chloro-3-[5-{2-[(2-methylpropyl)amino]-4-pyrimidinyl}-2-(tetrahydro-2H-pyran-4-yl)-1,3-thiazol-4-yl]phenyl}-2,6-difluorobenzenesulfonamide]: the IC50 in assay [1] (setting [4]) was below 100 nM; in assay [1] (setting [10]), at most 3.16 nM; in assay [2] (setting [6]), below 100 nM; in assay [2] (setting [7]), below 100 nM; in assay [3] (setting [8]) it was below 100 nM; in assay [3] (setting [9]), below 100 nM.

With `CC(C)CNc1nccc(-c2sc(C(C)(C)C)nc2-c2cccc(NS(=O)(=O)c3c(F)cccc3F)c2Cl)n1` [Example 19, N-[2-Chloro-3-(2-(1,1-dimethylethyl)-5-{2-[(2-methylpropyl)amino]-4-pyrimidinyl}-1,3-thiazol-4-yl)phenyl]-2,6-difluorobenzenesulfonamide], the IC50 in assay [1] (setting [4]) was below 100 nM; in assay [1] (setting [5]), 3.16 to 31.6 nM; in assay [2] (setting [6]), below 100 nM; in assay [2] (setting [7]) it was below 100 nM; in assay [3] (setting [8]), below 100 nM; in assay [3] (setting [9]), below 100 nM.

Take `CC(C)CNc1nccc(-c2sc(N3CCOCC3)nc2-c2cccc(NS(=O)(=O)c3c(F)cccc3F)c2Cl)n1` [Example 20, N-{2-Chloro-3-[5-{2-[(2-methylpropyl)amino]-4-pyrimidinyl}-2-(4-morpholinyl)-1,3-thiazol-4-yl]phenyl}-2,6-difluorobenzenesulfonamide]: the IC50 in assay [1] (setting [4]) was below 100 nM; in assay [1] (setting [10]), at most 3.16 nM; in assay [2] (setting [6]), below 100 nM; in assay [2] (setting [7]) it was below 100 nM; in assay [3] (setting [8]), below 100 nM; in assay [3] (setting [9]), below 100 nM.

For the molecule `Nc1nccc(-c2sc(N3CCOCC3)nc2-c2cccc(NS(=O)(=O)c3c(F)cccc3F)c2Cl)n1` [Example 21, N-{3-[5-(2-Amino-4-pyrimidinyl)-2-(4-morpholinyl)-1,3-thiazol-4-yl]-2-chlorophenyl}-2,6-difluorobenzenesulfonamide], the IC50 in assay [1] (setting [4]) was below 100 nM; in assay [1] (setting [10]), at most 3.16 nM; in assay [2] (setting [6]) it was 100 to 1000 nM; in assay [2] (setting [7]) it was 100 to 1000 nM; in assay [3] (setting [8]), 100 to 1000 nM; in assay [3] (setting [9]), 100 to 1000 nM.

Turning to `CC(C)CNc1nccc(-c2sc(N3CCOCC3)nc2-c2cccc(NS(=O)(=O)c3cc(F)ccc3F)c2Cl)n1` [Example 22, N-{2-Chloro-3-[5-{2-[(2-methylpropyl)amino]-4-pyrimidinyl}-2-(4-morpholinyl)-1,3-thiazol-4-yl]phenyl}-2,5-difluorobenzenesulfonamide], the IC50 in assay [1] (setting [4]) was below 100 nM; in assay [1] (setting [5]), 3.16 to 31.6 nM; in assay [2] (setting [6]), below 100 nM; in assay [2] (setting [7]), below 100 nM; in assay [3] (setting [8]), below 100 nM; in assay [3] (setting [9]), below 100 nM.

Take `CC(C)CNc1nccc(-c2sc(C(C)(C)C)nc2-c2cccc(NS(=O)(=O)c3cc(F)ccc3F)c2Cl)n1` [Example 23, N-[2-Chloro-3-(2-(1,1-dimethylethyl)-5-{2-[(2-methylpropyl)amino]-4-pyrimidinyl}-1,3-thiazol-4-yl)phenyl]-2,5-difluorobenzenesulfonamide]: the IC50 in assay [1] (setting [4]) is below 100 nM; in assay [1] (setting [5]), 3.16 to 31.6 nM; in assay [2] (setting [6]), 100 to 1000 nM; in assay [2] (setting [7]) it was 100 to 1000 nM; in assay [3] (setting [8]) it was 100 to 1000 nM; in assay [3] (setting [9]) it was 100 to 1000 nM.

On to `O=S(=O)(Nc1cccc(-c2nc(N3CCOCC3)sc2-c2ccncn2)c1Cl)c1c(F)cccc1F` [Example 27, N-{2-Chloro-3-[2-(4-morpholinyl)-5-(4-pyrimidinyl)-1,3-thiazol-4-yl]phenyl}-2,6-difluorobenzenesulfonamide], for which the IC50 in assay [1] (setting [4]) is below 100 nM; in assay [1] (setting [5]), 3.16 to 31.6 nM; in assay [2] (setting [6]), 100 to 1000 nM; in assay [2] (setting [7]), 100 to 1000 nM; in assay [3] (setting [8]), 100 to 1000 nM; in assay [3] (setting [9]), 100 to 1000 nM.

In the case of `Cc1nccc(-c2sc(N3CCOCC3)nc2-c2cccc(NS(=O)(=O)c3cc(F)ccc3F)c2Cl)n1` [Example 28, N-{2-Chloro-3-[5-(2-methyl-4-pyrimidinyl)-2-(4-morpholinyl)-1,3-thiazol-4-yl]phenyl}-2,5-difluorobenzenesulfonamide], the IC50 in assay [1] (setting [4]) is below 100 nM; in assay [1] (setting [5]) it was 3.16 to 31.6 nM; in assay [2] (setting [6]), below 100 nM; in assay [2] (setting [7]), below 100 nM; in assay [3] (setting [8]), below 100 nM; in assay [3] (setting [9]), below 100 nM.

On to `CC(C)c1nc(-c2ccc(F)c(NS(=O)(=O)c3ccc(F)cc3F)c2)c(-c2ccnc(NCCS(C)(=O)=O)n2)s1` [Example 29, 2,4-Difluoro-N-{2-fluoro-5-[2-(1-methylethyl)-5-(2-{[2-(methylsulfonyl)ethyl]amino}-4-pyrimidinyl)-1,3-thiazol-4-yl]phenyl}benzenesulfonamide], for which the IC50 was below 100 nM in assay [1] (setting [4]); 3.16 to 31.6 nM in assay [1] (setting [5]); 100 to 1000 nM in assay [2] (setting [6]); 100 to 1000 nM in assay [2] (setting [7]); 100 to 1000 nM in assay [3] (setting [8]); 100 to 1000 nM in assay [3] (setting [9]).

As to `CC(C)c1nc(-c2cccc(NS(=O)(=O)c3ccco3)c2)c(-c2ccnc(NCCS(C)(=O)=O)n2)s1` [Example 30, N-{3-[2-(1-Methylethyl)-5-(2-{[2-(methylsulfonyl)ethyl]amino}-4-pyrimidinyl)-1,3-thiazol-4-yl]phenyl}-2-furansulfonamide], the IC50 in assay [1] (setting [4]) was below 100 nM; in assay [1] (setting [10]), at most 3.16 nM; in assay [2] (setting [6]), below 100 nM; in assay [2] (setting [7]), below 100 nM; in assay [3] (setting [8]) it was below 100 nM; in assay [3] (setting [9]) it was below 100 nM.

Regarding `CC(C)c1nc(-c2cccc(NS(=O)(=O)c3cccs3)c2)c(-c2ccnc(NCCS(C)(=O)=O)n2)s1` [Example 31, N-{3-[2-(1-Methylethyl)-5-(2-{[2-(methylsulfonyl)ethyl]amino}-4-pyrimidinyl)-1,3-thiazol-4-yl]phenyl}-2-thiophenesulfonamide], the IC50 in assay [1] (setting [4]) was below 100 nM; in assay [1] (setting [10]), at most 3.16 nM; in assay [2] (setting [6]), below 100 nM; in assay [2] (setting [7]) it was below 100 nM; in assay [3] (setting [8]) it was below 100 nM; in assay [3] (setting [9]) it was below 100 nM.
